Assay results: article PMC3156125, “Reconstitution of the Costunolide Biosynthetic Pathway in Yeast and Nicotiana benthamiana” (PLoS ONE, 2011)

Key:
Type in all cases: cell-based
CiCOS = target: T1, CiCOS (Cichorium intybus, UniProt G3GBK0); experiment: yeast co-expression, GC-MS and UPLC-MRM-MS; conditions: WAT11 yeast with TpGAS and CiGAO; substrate formed in situ; HEPES or MOPS pH 7.5, 30 °C; also N. benthamiana transient expression
T1 construct: gene CYP71BL3; full-length cDNA in pYEDP60, WAT11 yeast, co-expressed with TpGAS and CiGAO; also N. benthamiana
T1 sequence (G3GBK0 1-494): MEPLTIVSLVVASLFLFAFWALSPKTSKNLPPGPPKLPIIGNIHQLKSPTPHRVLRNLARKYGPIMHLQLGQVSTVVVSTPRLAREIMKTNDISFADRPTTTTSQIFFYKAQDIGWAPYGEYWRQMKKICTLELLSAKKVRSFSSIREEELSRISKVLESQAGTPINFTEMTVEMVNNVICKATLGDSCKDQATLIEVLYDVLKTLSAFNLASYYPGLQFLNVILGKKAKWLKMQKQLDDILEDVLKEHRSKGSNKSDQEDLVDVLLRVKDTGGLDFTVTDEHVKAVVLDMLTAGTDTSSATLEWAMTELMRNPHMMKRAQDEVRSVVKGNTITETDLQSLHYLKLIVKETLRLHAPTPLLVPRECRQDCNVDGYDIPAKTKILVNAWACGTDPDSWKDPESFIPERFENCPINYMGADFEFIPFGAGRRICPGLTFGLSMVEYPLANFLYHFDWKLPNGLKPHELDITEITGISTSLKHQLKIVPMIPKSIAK

CiGAO [1] = target: T2, CiGAO (Cichorium intybus, UniProt D5JBW8); experiment: yeast co-expression, GC-MS; conditions: WAT11 yeast with TpGAS; detected as elematrien-12-oic acid after heat rearrangement
T2 construct: cDNA from chicory library, no terminal tags, pESC-Trp in WAT11 yeast with TpGAS
T2 sequence (D5JBW8 1-488): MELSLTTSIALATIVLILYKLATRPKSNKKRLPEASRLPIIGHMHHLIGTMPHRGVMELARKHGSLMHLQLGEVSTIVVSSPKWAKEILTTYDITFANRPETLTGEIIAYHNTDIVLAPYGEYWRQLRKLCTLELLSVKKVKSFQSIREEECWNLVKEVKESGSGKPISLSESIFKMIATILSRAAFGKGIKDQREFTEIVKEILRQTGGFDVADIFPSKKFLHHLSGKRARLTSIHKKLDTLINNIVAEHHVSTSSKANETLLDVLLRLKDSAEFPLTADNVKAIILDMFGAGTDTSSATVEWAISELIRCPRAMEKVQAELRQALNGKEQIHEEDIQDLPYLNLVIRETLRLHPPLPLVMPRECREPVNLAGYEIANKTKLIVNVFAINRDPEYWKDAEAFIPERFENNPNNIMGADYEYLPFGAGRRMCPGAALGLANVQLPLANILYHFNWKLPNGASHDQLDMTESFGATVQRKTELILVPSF

TpGAS = target: T3, TpGAS (Tanacetum parthenium, UniProt F8UL80); experiment: yeast culture extract, GC-MS; conditions: endogenous farnesyl diphosphate; also N. benthamiana headspace
T3 construct: gene GAS
T3 sequence (F8UL80 1-559): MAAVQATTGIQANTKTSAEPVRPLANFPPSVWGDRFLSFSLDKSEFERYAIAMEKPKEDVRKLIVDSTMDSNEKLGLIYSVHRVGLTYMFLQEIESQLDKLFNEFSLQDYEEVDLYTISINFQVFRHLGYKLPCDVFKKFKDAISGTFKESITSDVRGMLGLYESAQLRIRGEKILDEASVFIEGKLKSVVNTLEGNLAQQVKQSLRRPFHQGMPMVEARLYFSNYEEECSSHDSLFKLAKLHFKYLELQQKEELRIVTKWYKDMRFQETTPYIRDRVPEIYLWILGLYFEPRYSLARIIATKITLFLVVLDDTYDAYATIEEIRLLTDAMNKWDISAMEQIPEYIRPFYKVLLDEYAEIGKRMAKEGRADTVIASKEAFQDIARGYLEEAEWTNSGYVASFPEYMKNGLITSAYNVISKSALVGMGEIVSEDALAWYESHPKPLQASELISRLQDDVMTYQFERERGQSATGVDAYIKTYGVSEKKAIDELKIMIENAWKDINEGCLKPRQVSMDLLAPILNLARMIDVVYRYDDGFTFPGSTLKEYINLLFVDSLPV

CiGAS-l (CiGAS-long) = target: T4, CiGAS-l (CiGAS-long) (Cichorium intybus, UniProt Q8LSC3); experiment: yeast culture extract, GC-MS; conditions: endogenous farnesyl diphosphate
T4 sequence (Q8LSC3 1-583): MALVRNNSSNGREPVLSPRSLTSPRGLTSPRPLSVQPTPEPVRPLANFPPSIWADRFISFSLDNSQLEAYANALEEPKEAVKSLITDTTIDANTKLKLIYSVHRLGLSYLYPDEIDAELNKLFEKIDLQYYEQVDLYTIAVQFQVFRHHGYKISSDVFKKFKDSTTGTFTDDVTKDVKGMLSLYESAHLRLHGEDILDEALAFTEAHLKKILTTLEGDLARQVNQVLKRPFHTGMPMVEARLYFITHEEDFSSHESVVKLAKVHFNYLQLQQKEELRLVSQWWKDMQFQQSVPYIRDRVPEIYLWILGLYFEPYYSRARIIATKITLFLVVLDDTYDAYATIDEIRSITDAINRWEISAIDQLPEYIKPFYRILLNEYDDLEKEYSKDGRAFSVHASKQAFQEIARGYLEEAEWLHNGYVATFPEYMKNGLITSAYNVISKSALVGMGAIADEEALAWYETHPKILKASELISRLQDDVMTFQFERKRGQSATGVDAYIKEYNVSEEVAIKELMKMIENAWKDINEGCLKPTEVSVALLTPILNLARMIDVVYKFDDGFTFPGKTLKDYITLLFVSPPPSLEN

CiGAO [2] = target: T2, CiGAO; experiment: N. benthamiana co-infiltration, headspace GC-MS; conditions: with mTpGAS; substrate formed in situ

Structure (SMILES): C=C1C(=O)O[C@@H]2/C=C(\C)CC/C=C(\C)CC[C@@H]12 [costunolide]
- yeast co-expression, GC-MS and UPLC-MRM-MS (CiCOS): encodes an enzymatic activity which was able to produce costunolide

Structure (SMILES): C=C(C(=O)O)[C@H]1C/C=C(\C)CC/C=C(\C)CC1 [germacra-1(10),4,11(13)-trien-12-oic acid]
- yeast co-expression, GC-MS (CiGAO [1]): enzymatic activity was confirmed in our yeast system by co-expression of TpGAS and CiGAO

Structure (SMILES): C=C(C)[C@H]1C/C=C(\C)CC/C=C(\C)CC1 [germacrene A]
- yeast culture extract, GC-MS (TpGAS): yeast culture expressing TpGAS had an approximately three fold higher activity
- yeast culture extract, GC-MS (CiGAS-l (CiGAS-long)): Germacrene A production in yeast. A yeast culture transformed by either CiGAS-long
- N. benthamiana co-infiltration, headspace GC-MS (CiGAO [2]): CiGAO can efficiently catalyse the conversion of the product of mTpGAS, germacrene A
